Where “and” joins values, the source holds several entries; their conditions need not be identical. Equal entries are not always repeated. Entries after “also recorded” stand apart in the source; their conditions may differ.
Experiments:
NOD.hALOX12 mice [1] = assay: Islet cell death and proliferation staining (TUNEL, H2A.X, PCNA) in NOD.hALOX12 mice
Description: (§2) We, therefore, immunostained pancreatic sections for markers of cell death and proliferation in the islet.
Pancreatic tissues were fixed using 4% paraformaldehyde. After fixation, the tissues were embedded in paraffin and sectioned with a thickness of 5 μm. Three sections per mouse were used for analysis, with each section being spaced 100 μm apart. Tissue sections were immunostained with anti-insulin (ProteinTech, 15848-1-AP; 1:200), anti-glucagon (Abcam, ab92517; 1:200), anti–12-LOX (Thermo Fisher Scientific, PA5-26020; 1:200), anti–12/15-LOX (Abcam, ab80221; 1:200), anti-CD3 (Abcam, ab16669; 1:200), anti-F4/80 (Sigma-Aldrich, D2S9R; 1:150), anti-MAC2 (Thermo Fisher Scientific, EbioM3/38; 1:200), and anti-H2A.X (Cell Signaling Technology, 9718s; 1:200) primary antibodies followed by conjugated anti-rabbit Ig (Vector Laboratories) secondary antibody. A DAB (3,3′-diaminobenzedine) Peroxidase Substrate Kit from Vector Laboratories was used for detection. After immunostaining, the tissue sections were counterstained with hematoxylin (Sigma-Aldrich). Images were acquired using a BZ-X810 fluorescence microscope (Keyence) and β/α cell mass was quantified by insulin^+ or glucagon^+ area and whole pancreas area.
(§3) For immunofluorescent staining, pancreatic sections were stained with the following antibodies: anti-insulin (Dako, IR002; 1:4), anti-glucagon (Santa Cruz Biotechnology, sc514592; 1:50), anti-B220 (BioLegend, 03201; 1:100), anti-CD3 (Abcam, ab16669; 1:200), anti-PCNA (Santa Cruz Biotechnology, sc-7907; 1:100), anti–4-HNE (Abcam, ab46545; 1:200), and anti-GPx1 (Santa Cruz Biotechnology, sc-22145; 1:100). Highly cross-adsorbed Alexa Fluor secondary antibodies (Thermo Fisher Scientific) were used at a dilution of 1:500. Tissue sections were stained with DAPI (Thermo Fisher Scientific) to label cell nuclei. The Nikon A1 confocal microscopy was used to capture images. CellProfiler v4.1 software (https://cellprofiler.org/) was used for image analysis.
A TUNEL assay was used to determine β cell death in pancreatic islets. The assay was performed according to the protocol provided by the manufacturer (Abcam) and HRP-DAB chemistry was used for detection. Two sections, spaced 100 μm apart, were used for each mouse. Images were captured using a BZ-X810 fluorescence microscope system (Keyence). The number of TUNEL^+ cells was assessed manually per islet.

NOD.hALOX12 mice [2] = assay: NanoString spatial proteomics of insulitic and insulin-positive areas in NOD.hALOX12 mice; assay type: in vivo, mouse
Text: To specifically interrogate the nature of immune cells within the insulitic region, we performed spatial tissue-based proteomics (NanoString). We used insulin immunostaining and nuclei staining to identify β cells and the surrounding insulitic regions. Prevalidated antibodies in the GeoMx mouse immune panel were used to probe for immune cell subtypes in the peri-islet insulitic region and within the islet. […] This reduction in myeloid cell populations was accompanied by a decrease in T and B cells populations, including CD4^+, CD3^+, CD8^+, and CD19^+ cells (Figure 2F and Supplemental Figure 2, A and B). […] Enhanced PD-L1/PD-1 interactions shift T cells to less aggressive, more regulatory phenotypes ([21]).
Paraffin embedded pancreata were used for NanoString spatial proteomics analysis. Tissues were stained with morphology markers: AF-647–conjugated insulin (Cell Signaling Technology, 9008s; 1:400) and nuclei marker (SYTO13). Tissues were hybridized using a pre-validated mouse GeoMx Immune cell panel (NanoString, GMX-PROCONCT-MICP) comprising the following markers: PD-1, CD11c, CD8a, PanCk, MHC II, CD19, CTLA4, SMA, CD11b, CD3e, fibronectin, Ki-67, CD4, GZMB, F4/80, CD45, PD-L1; housekeeping genes: histone H3, S6, GAPDH; and IgG antibodies: Rb IgG, Rat IgG2a, and Rat IgG2b for background subtraction. All markers were conjugated to unique UV-photocleavable oligos for indexing. At least 5 or 6 islets with insulitis were chosen as regions of interest (ROIs) per mouse based on the morphology markers (insulin and nuclei). The ROIs were segmented into insulitic region and insulin^+ region for each islet. Oligonucleotides from the segmented ROIs were photocleaved, collected in a 96-well plate, and reads were counted using nCounter (NanoString). Scaling was performed to normalize for any differences in tissue surface area and depth. After scaling, reads were normalized to housekeeping markers and background was subtracted using IgG markers.

NOD.hALOX12 mice [3] = assay: as above; assay type: in vivo, mouse; conditions: Insulitic Area; Fig 2F source data, individual values
[4] = Pharmacokinetics after single p.o. dose in NOD.ShiLt/J mice (plasma LC-MS/MS); assay type: in vivo, mouse; conditions: 30 mg/kg p.o., mean ± SD
Text: The NOD mouse model is a model of T1D that recapitulates many of the immune and β cell features of the disease ([20]). […] To address this question, we introgressed humanized hALOX12 mice onto the NOD background using a speed congenics approach. […] We next measured human 12-LOX protein levels in the NOD.hALOX12 mice.

12-LOX products = assay: Serum lipidomics (LC-MS/MS) of 12-LOX and non-12-LOX products in NOD.hALOX12 mice; assay type: in vivo, mouse
Description: Lipidomics analysis (by LC-MS/MS) was performed for a series of 12-LOX products resulting from different fatty acid substrates (Figure 2A).

human islets = tested on: human islets; design: method as in PMID 28609824; conditions: cited from earlier work
NOD.hALOX12 mice [5] = assay: Diabetes incidence (prevention) in NOD.hALOX12 mice; assay type: in vivo, mouse; conditions: 30 mg/kg p.o. daily, 6–10 weeks of age
Description: (§1) Mice were followed for diabetes development (blood glucose ≥250 mg/dL on 2 consecutive days) until 25 weeks of age (Figure 3A).
Diabetes incidence was determined by observing 2 consecutive blood glucose values greater than 250 mg/dL.

NOD.hALOX12 mice [6] = assay: Diabetes treatment (reversal) in diabetic female NOD.hALOX12 mice; assay type: in vivo, mouse; conditions: 30 mg/kg/day p.o. up to 6 weeks
Description: as §1
For diabetes treatment studies, female NOD.hALOX12 mice were followed for random-fed blood glucose from 12 to 20 weeks of age.

NOD.hALOX12 mice [7] = assay: Oxidative stress immunostaining (4-HNE, GPx1) in NOD.hALOX12 mice; assay type: in vivo, mouse
Description: as §2, §3

[8] = female NOD.hALOX12 mice, 4 weeks of treatment
[9] = sheet Fig 4D, individual mice, listed as VLX
[10] = Insulitic Area, Fig 2F source data, individual values
[11] = female NOD.hALOX12 mice, 30 mg/kg p.o., 4 weeks
[12] = sheet SFig 2A, individual regions of interest
[13] = female NOD.hALOX12 mice, 30 mg/kg p.o., 1 week
[14] = serum, individual animals, listed as VLX
[15] = sheet Fig 4E, individual mice, listed as VLX

Compound: COc1cccc(CNc2ccc(S(=O)(=O)Nc3nc4ccccc4s3)cc2)c1O [VLX-1005]
- Islet cell death (TUNEL, H2A.X staining) vs vehicle (NOD.hALOX12 mice [1]; [8]): decreased islet cell death
- β cell proliferation (PCNA immunostaining) vs vehicle (NOD.hALOX12 mice [1]; [8]): decreased β cell proliferation
- H2Ax (NOD.hALOX12 mice [1]; [9]): 0.25 and 0.166 and 0 and 0.14
- PCNA (NOD.hALOX12 mice [1]; [9]): 1.4 and 1.2 and 0.9 and 1.83
- CD11b (NOD.hALOX12 mice [2]; [10]): 5.147 and 5.277 and 5.327 and 5.94 and 5.07 and 5.565 and 5.634 and 5.068 and 4.855 and 6.029
- CD11c (NOD.hALOX12 mice [2]; [10]): 2.876 and 1.502 and 2.598 and 4.232 and 2.537 and 2.93 and 3.146 and 2.8254 and 2.641 and 4.743
- CD45 (first CD45 row) (NOD.hALOX12 mice [2]; [10]): 5.25 and 3.49 and 3.636 and 8.487 and 3.645 and 3.942 and 4.828 and 3.892 and 3.054 and 8.111
- CD45 (second CD45 row) (NOD.hALOX12 mice [2]; [10]): -0.2135 and 0.0264 and 0.3853 and 4.031 and -1.253 and 0.3826 and 0.2212 and -1.155 and 0.06453 and 3.867
- CTLA4 (NOD.hALOX12 mice [2]; [10]): 1.939 and 2.368 and 2.417 and 1.307 and 2.276 and 2.4212 and 3.583 and 2.587 and 3.2171 and 2.563
- F4/80 (NOD.hALOX12 mice [2]; [10]): 0.2536 and 0.7983 and 1.224 and 1.023 and -0.1728 and 1.356 and 2.254 and 0.8327 and -0.1455 and 1.282
- GZMB (NOD.hALOX12 mice [2]; [10]): 4.352 and 4.4072 and 5.2506 and 2.9798 and 5.432 and 6.733 and 6.076 and 5.882 and 4.529 and 3.344
- MHC II (NOD.hALOX12 mice [2]; [10]): -0.6174 and 1.207 and 0.8883 and -0.3662 and -0.4066 and -0.144 and -0.3371 and 1.073 and -0.07508 and -1.247
- PD-1 (NOD.hALOX12 mice [2]; [10]): -0.3236 and 0.1793 and 1.041 and 1.538 and -1.244 and -0.5413 and -0.07496 and 0.52 and -0.1742 and 0.5415
- PD-L1 (NOD.hALOX12 mice [2]; [10]): 1.897 and 1.722 and 1.56 and 0.2193 and 1.6509 and 2.371 and 2.045 and 2.4831 and 1.059 and 0.2909
- Myeloid population subtypes (macrophages, dendritic cells) in insulitic and islet areas (NOD.hALOX12 mice [2]; [11]): notable reduction
- PD-L1 levels (spatial proteomics) (NOD.hALOX12 mice [2]; [11]): increased levels
- T and B cell populations (CD4+, CD3+, CD8+, CD19+) in insulitic and islet areas (NOD.hALOX12 mice [2]; [11]): decrease
- CD4 (NOD.hALOX12 mice [2]; [12]): 0.3826 and 0.2212 and -1.155 and 0.06453 and 3.867 and -0.2135 and 0.0264 and 0.3853 and 4.031 and -1.253
- CD8 (NOD.hALOX12 mice [2]; [12]): 1.856 and 1.666 and 1.577 and 1.141 and 2.8916 and 1.46 and 1.4593 and 2.166 and 2.266 and 1.44
- CD11b (NOD.hALOX12 mice [2]; [12]): 5.565 and 5.634 and 5.068 and 4.855 and 6.029 and 5.147 and 5.277 and 5.327 and 5.94 and 5.07
- CD11c (NOD.hALOX12 mice [2]; [12]): 2.93 and 3.146 and 2.8254 and 2.641 and 4.743 and 2.876 and 1.502 and 2.598 and 4.232 and 2.537
- CD19 (NOD.hALOX12 mice [2]; [12]): 0.2718 and 0.8536 and 0.6292 and 1.249 and 2.864 and 0.1873 and -0.4029 and 0.4865 and 2.831 and -0.3159
- CD-3e (NOD.hALOX12 mice [2]; [12]): 4.049 and 3.547 and 4.013 and 3.889 and 3.319 and 3.27 and 3.43 and 3.812 and 3.482 and 3.738
- CTLA4 (NOD.hALOX12 mice [2]; [12]): 2.4212 and 3.583 and 2.587 and 3.2171 and 2.563 and 1.939 and 2.368 and 2.417 and 1.307 and 2.276
- F4/80 (NOD.hALOX12 mice [2]; [12]): 1.356 and 2.254 and 0.8327 and -0.1455 and 1.282 and 0.2536 and 0.7983 and 1.224 and 1.023 and -0.1728
- GZMB (NOD.hALOX12 mice [2]; [12]): 6.733 and 6.076 and 5.882 and 4.529 and 3.344 and 4.352 and 4.4072 and 5.2506 and 2.9798 and 5.432
- PD-1 (NOD.hALOX12 mice [2]; [12]): -0.5413 and -0.07496 and 0.52 and -0.1742 and 0.5415 and -0.3236 and 0.1793 and 1.041 and 1.538 and -1.244
- PD-L1 (NOD.hALOX12 mice [2]; [12]): 2.371 and 2.045 and 2.4831 and 1.059 and 0.2909 and 1.897 and 1.722 and 1.56 and 0.2193 and 1.6509
- Ki67 (NOD.hALOX12 mice [2]; sheet SFig 2B, individual regions of interest): 1.4 and 1.3004
- CD19 (NOD.hALOX12 mice [3]): 0.1873 and -0.4029 and 0.4865 and 2.831 and -0.3159 and 0.2718 and 0.8536 and 0.6292 and 1.249 and 2.864
- AUClast/D ([4]; dose-normalized): 440 ± 54 ng·h/mL
- AUC%extrap_obs [4]: 0.115 ± 0.099%
- AUC(0-inf) ([4]; mouse, plasma, po): 13200 ng·h/mL
- AUC(0-t) ([4]; mouse, plasma, po): 13200 ng·h/mL
- Cmax ([4]; mouse, plasma, po): 14300 ng/mL
- half-life ([4]; mouse, plasma, po): 2.53 ± 0.41 h
- MRT inf ([4]; mouse, plasma, po, read-out: MRTinf_obs): 3.81 ± 0.71 h
- Serum 12-HEPE level vs vehicle (12-LOX products; [13]): not significantly changed
- Serum 12-HETE level vs vehicle (12-LOX products; [13]): significantly reduced
- Serum 13-HODE level vs vehicle (12-LOX products; [13]): significantly reduced
- Serum 14-HDHA level vs vehicle (12-LOX products; [13]): significantly reduced
- Serum 17-HDHA level vs vehicle (12-LOX products; [13]): significantly reduced
- 12-HEPE (Fig 2B) (12-LOX products; [14]): 14.181 and 5.614 and 0.079 and 3.392 and 10.786
- 12-HETE (Fig 2B) (12-LOX products; [14]): 1108.62 and 574.602 and 13.903 and 321.764 and 853.064
- 13(S)-HODE (Fig 2B) (12-LOX products; [14]): 213.641 and 75.17 and 53.113 and 81.494 and 90.355
- 14-HDHA (Fig 2B) (12-LOX products; [14]): 76.057 and 30.285 and 4.719 and 24.172 and 46.818
- 15-HETE (Fig 2B) (12-LOX products; [14]): 21.905 and 9.387 and 6.557 and 15.336 and 15.324
- 17-HDHA (Fig 2B) (12-LOX products; [14]): 7.358 and 2.244 and 2.092 and 3.507 and 3.423
- Cytotoxicity in human islets (human islets): without evidence of cytotoxicity
- Effect on function of cytokine-treated human islets in vitro (human islets; proinflammatory cytokines): efficacy in reversing the insulin secretory defects; also recorded: protect human islets in vitro against dysfunction caused by proinflammatory cytokines
- Mice protected from diabetes development at 25 weeks of age (NOD.hALOX12 mice [5]; female NOD.hALOX12 mice): 60%
- Mice protected from diabetes development at 25 weeks of age (NOD.hALOX12 mice [5]; male NOD.hALOX12 mice): 75%
- Blood glucose levels vs vehicle in established diabetes (NOD.hALOX12 mice [6]): relative reductions in blood glucose levels
- Reversal of established diabetes (NOD.hALOX12 mice [6]): did not observe a reversal in diabetes
- 4-HNE immunostaining (oxidative stress marker) vs placebo (NOD.hALOX12 mice [7]; [8]): reduced immunostaining
- GPx1 levels in β cells (NOD.hALOX12 mice [7]; [8]): increase
- 4-hne (NOD.hALOX12 mice [7]; [15]): 300.045 and 304.934 and 308.173 and 287.237 and 299.135
- GPx1 (NOD.hALOX12 mice [7]; [15]): 416.4 and 443.77 and 439.26 and 458.35

Reference: PMC11665553, “12-Lipoxygenase inhibition delays onset of autoimmune diabetes in human gene replacement mice” (JCI Insight, 2024)
